Results published in the OPERA property sets (Mansouri et al. 2018).
≈ marks a conversion by molar mass, not a printed value.

settings: not given

**Q.** With `c1ccc2c(c1)Cc1cccnc1-2` as the compound, how does the logP read?
**A.** Its logP is 2.96.

**Q.** With `NC(=O)c1ccccc1NCCO` as the compound, how does the logP read?
**A.** The logP was -0.05.

**Q.** With `O=C(CCCN1CCC(O)(c2ccc(Cl)cc2)CC1)c1ccc(F)cc1` as the compound, how does the logP read?
**A.** The logP was 4.3.

**Q.** With `Cn1cnc2c(N)ncnc21` as the compound, how does the logP read?
**A.** Its logP is -0.03.

**Q.** Which logP does the source give for `Cc1ccc(C)c(NCc2cnc3nc(N)nc(N)c3c2C)c1` here?
**A.** Its logP is 2.29.

**Q.** With `O=P(OCCCl)(OCCCl)OCCCl` as the compound, how does the solubility read?
**A.** The solubility was 24.5 mM (≈ 7000 µg/mL).

**Q.** For `O=C([O-])c1ccccc1O.[Na+]`, which solubility is on record?
**A.** Its solubility is 781 mM.

**Q.** For `CC(Cc1ccc(C(C)(C)C)cc1)CN1C[C@@H](C)O[C@@H](C)C1` (single isomer, unassigned), which logP is on record?
**A.** The logP was 4.93.

**Q.** For `CCOc1ccccc1NCc1cnc2nc(N)nc(N)c2c1C`, which logP is on record?
**A.** The logP was 2.07.

**Q.** Which logP does the source give for `O=C(O)CNCP(=O)(O)O` here?
**A.** Its logP is -3.4.

**Q.** Which logP does the source give for `Clc1ccc(C2OC2c2ccccc2)cc1` (configuration not stated) here?
**A.** Its logP is 4.54.

**Q.** For `CC(C)NCc1ccccc1`, which logP is on record?
**A.** Its logP is 1.83.

**Q.** Which logP does the source give for `CCOP(=O)(CN(CCO)CCO)OCC` here?
**A.** The logP was -0.72.

**Q.** For `CCOC(=O)[C@@H](N)Cc1ccc(O)c(O)c1`, which logP is on record?
**A.** Its logP is 0.28.

**Q.** For `CCN(CC)P(=O)(N(CC)CC)N(CC)CC`, which logP is on record?
**A.** The logP was 2.53.

**Q.** With `CCOC(=O)C(C)OC(=O)c1cc(Oc2ccc(C(F)(F)F)cc2Cl)ccc1[N+](=O)[O-]` (configuration not stated) as the compound, how does the solubility read?
**A.** Its solubility is 0.000217 mM (≈ 0.1 µg/mL).

**Q.** With `O=c1[nH][nH]c(=O)c2ccccc12` as the compound, how does the logP read?
**A.** Its logP is 0.11.

**Q.** Which logP does the source give for `CC(=O)Oc1ccc(N(C)C(=O)C(Cl)Cl)cc1` here?
**A.** The logP was 1.56.

**Q.** Which logP does the source give for `CCCCCCCCOC(=O)c1ccc(N)cc1` here?
**A.** The logP was 5.02.

**Q.** With `Nc1ncnc2c1nc(Sc1ccc(Cl)cc1)n2C1OC2COP(=O)(O)OC2C1O` (configuration not stated) as the compound, how does the logP read?
**A.** The logP was -0.98.

**Q.** Which logP does the source give for `CCn1cc(C(=O)O)c(=O)c2cc(F)c(N3CCNCC3)c(F)c21` here?
**A.** Its logP is -0.57.

**Q.** With `Cc1c(O)c(=O)ccn1CCO` as the compound, how does the logP read?
**A.** The logP was -1.1.

**Q.** With `COc1ncnc2c1ncn2C1OC(COC(=O)C(C)(C)C)C(O)C1OC(=O)C(C)(C)C` (configuration not stated) as the compound, how does the logP read?
**A.** Its logP is 3.4.

**Q.** For `COc1cc(C(=O)NCc2ccc(OCCN(C)C)cc2)cc(OC)c1OC`, which logP is on record?
**A.** The logP was 2.29.

**Q.** Which logP does the source give for `COc1c(Cl)c(Cl)cc(Cl)c1Cl` here?
**A.** The logP was 4.68.

**Q.** Which logP does the source give for `Nc1nc2c(ncn2COCCO)c(=O)[nH]1` here?
**A.** The logP was -1.56.

**Q.** Which logP does the source give for `CC(CCC(=O)O)C1CCC2C3C(O)C(O)C4CC(O)CCC4(C)C3CCC12C` (configuration not stated) here?
**A.** The logP was 2.8.

**Q.** For `Cc1c(Cl)ccc(Cc2c(Cl)cccc2Cl)c1Cl`, which logP is on record?
**A.** Its logP is 7.2.

**Q.** For `Oc1ccc(Cl)cc1Cc1ccccc1`, which logP is on record?
**A.** The logP was 3.6.

**Q.** And the solubility?
**A.** The solubility was 0.681 mM (≈ 149 µg/mL).

**Q.** With `CCCCN=C=S` as the compound, how does the logP read?
**A.** The logP was 2.92.

**Q.** For `O=C(O)C1CCN1CC(O)Cn1ccnc1` (configuration not stated), which logP is on record?
**A.** Its logP is -2.02.

**Q.** Which logP does the source give for `COc1ccc(-c2cc(C#N)c(Cl)nc2C)cc1` here?
**A.** The logP was 3.38.

**Q.** For `Cc1cc(Cl)ccc1OC(C)C(=O)O` (configuration not stated), which logP is on record?
**A.** The logP was 3.13.

**Q.** With `CC(C)(O)C(=O)Nc1ccc([N+](=O)[O-])c(C(F)(F)F)c1` as the compound, how does the logP read?
**A.** Its logP is 2.7.

**Q.** Which logP does the source give for `CC(=O)N[C@@H](C)C(=O)N[C@@H](C)C(N)=O` here?
**A.** The logP was -2.

**Q.** For `CC(=O)NCCc1ccccc1`, which logP is on record?
**A.** The logP was 1.19.

**Q.** For `COc1ccc(N=c2snc3sc(S(N)(=O)=O)nn23)cc1`, which logP is on record?
**A.** The logP was 2.93.

**Q.** Which logP does the source give for `CCCCn1cccc(O)c1=O` here?
**A.** The logP was 1.18.

same assay, conditions: 20 °C

**Q.** For `CC(O)CN(CC(C)O)CC(C)O` (configuration not stated), which solubility is on record?
**A.** Its solubility is 4340 mM (≈ 830000 µg/mL).

**Q.** Which solubility does the source give for `O=C(O)c1ccccn1` here?
**A.** Its solubility is 7800 mM (≈ 960000 µg/mL).

**Q.** Which solubility does the source give for `N#Cc1ccncc1` here?
**A.** The solubility was 384 mM (≈ 40000 µg/mL).

same assay, conditions: 23.0 °C

**Q.** Which log10 OH rate constant (cm³/molecule/s) does the source give for `CC/C=C\CCO` here?
**A.** The log10 OH rate constant (cm³/molecule/s) was -9.96.

**Q.** For `CC(C)CC(C)(C)O`, which log10 OH rate constant (cm³/molecule/s) is on record?
**A.** Its log10 OH rate constant (cm³/molecule/s) is -10.9.

same assay, conditions: 24 °C

**Q.** With `CN(Cc1ccccc1)N=O` as the compound, how does the solubility read?
**A.** Its solubility is 30 mM (≈ 4510 µg/mL).

same assay, conditions: 24.0 °C

**Q.** For `Clc1cc(Cl)cc(-c2ccccc2)c1`, which log10 OH rate constant (cm³/molecule/s) is on record?
**A.** The log10 OH rate constant (cm³/molecule/s) was -11.4.

same assay, conditions: 25 °C

**Q.** With `O=C(O)c1cccc(C(=O)O)c1` as the compound, how does the solubility read?
**A.** The solubility was 0.602 mM (≈ 100 µg/mL).

**Q.** With `CCCCC(CC)CO` (configuration not stated) as the compound, how does the solubility read?
**A.** Its solubility is 6.02 mM (≈ 785 µg/mL).

**Q.** For `ClCC(Cl)CCl`, which solubility is on record?
**A.** Its solubility is 11.9 mM (≈ 1750 µg/mL).

**Q.** For `CCCCC(C)CCC` (configuration not stated), which solubility is on record?
**A.** Its solubility is 0.000897 mM (≈ 0.115 µg/mL).

**Q.** Which solubility does the source give for `NC(N)=O` here?
**A.** Its solubility is 9070 mM (≈ 545000 µg/mL).

**Q.** Which solubility does the source give for `CC(C)(C)c1cccc(C(C)(C)C)c1O` here?
**A.** The solubility was 0.0121 mM (≈ 2.5 µg/mL).

**Q.** For `Cc1ccc(O)c(C)c1`, which solubility is on record?
**A.** Its solubility is 64.4 mM (≈ 7870 µg/mL).

**Q.** With `CC(C)(C)c1cccc(O)c1` as the compound, how does the solubility read?
**A.** Its solubility is 13.8 mM (≈ 2070 µg/mL).

**Q.** Which solubility does the source give for `Nc1ccc2c(c1)C(=O)c1ccccc1C2=O` here?
**A.** Its solubility is 0.00073 mM (≈ 0.163 µg/mL).

**Q.** For `CCOC(=O)[C@H](CCc1ccccc1)N[C@@H](C)C(=O)N1CCC[C@H]1C(=O)O`, which solubility is on record?
**A.** The solubility was 43.6 mM (≈ 16400 µg/mL).

**Q.** With `Clc1cccc(Cl)c1` as the compound, how does the solubility read?
**A.** Its solubility is 0.85 mM (≈ 125 µg/mL).

**Q.** Which solubility does the source give for `ClC/C=C/CCl` here?
**A.** The solubility was 5.27 mM (≈ 659 µg/mL).

same assay, conditions: 25.0 °C

**Q.** For `ClC(Cl)C(Cl)Cl`, which log10 OH rate constant (cm³/molecule/s) is on record?
**A.** Its log10 OH rate constant (cm³/molecule/s) is -12.6.

**Q.** For `Clc1c(Cl)c(Cl)c2c(c1Cl)Oc1ccccc1O2`, which log10 OH rate constant (cm³/molecule/s) is on record?
**A.** Its log10 OH rate constant (cm³/molecule/s) is -12.1.

**Q.** With `O=C/C=C/C=C/C=O` as the compound, how does the log10 OH rate constant (cm³/molecule/s) read?
**A.** Its log10 OH rate constant (cm³/molecule/s) is -10.

**Q.** Which log10 OH rate constant (cm³/molecule/s) does the source give for `CCSC(=O)N(CC)C1CCCCC1` here?
**A.** Its log10 OH rate constant (cm³/molecule/s) is -10.5.
